Experiments:
HBV [1] = assay: Humanized mouse model of HBV infection in human-murine liver chimeric mice; assay type: in vivo, FRG KO mice; design: unit not given here; details: n=6
Method: (asterisks), the group treated with illustrative compound 46 at 3 mg/kg p.o. q.d. (asterisks), the group treated with illustrative compound 46 at 30 mg/kg p.o. q.d. (filled squares), the group treated with illustrative compound 44 at 1 mg/kg p.o. q.d. (crosses), and the group treated with illustrative compound 44 at 10 mg/kg p.o. q.d. (filled circles).
Six to ten weeks old male or female FRG KO mice (Fah-/-/Rag2-/-/Il2rg-/-triple knock-out - Yecuris Corporation P.O. Box 4645, Tualatin, OR 97062, USA) are used. They are provided with filtered tap water and standard chow ad libitum and maintained at 22 ± 2°C in 55 ± 10% humidity on a 12h light/dark cycle.
Each mouse is repopulated by intra splenic injection of 1 to 2 10^6 human hepatocytes (Life Technologies ref HMCS2SA). To allow a progressive and efficacious repopulation, drinking water is regularly supplemented with Nitisinone (Yecuris, lot TNAK0002). The repopulation rate is controlled by hAlb dosage in serum (Euromedex ref E88-129). About 3 to 4 months after the human hepatocyte injection, mice for which repopulation is successful reach an hAlb level >1g/L and can be used for HBV infection.
The test compounds for p.o administration are formulated in Solutol at 2% (Sigma : Kolliphor hS15 12966-1kg lot BCBM0868V) and methylcellulose 0.5% at 98%
Each mouse is injected with HBV-2015 batch ([…]) with an inoculum of 1.38 10^8 GE HBV (0.2 mL) via tail vein.
Six to seven weeks after infection, blood is sampled under isoflurane anesthesia by retro-orbital puncture. HBsAg is dosed in serum by Elisa assay (Immunodiagnostic, ref HBSAG EIA). HBV DNA level is measured in the mice serum using qPCR (SYBR green). Only mice reaching HBsAg level above 1000UI/mL are kept and randomized.
Treatment is given for 5 weeks according to body weight.
Body weight is recorded every week.
Between Day 7 and Day 11, a steady state PK is performed with sampling of blood under isoflurane anesthesia by retro-orbital puncture at T=0, 1h, 3h, 6h post treatment. Plasma are frozen before decontamination with ethanol absolute 80% and transfer to bioanalysis laboratory for compound dosage by LCMS-MS.
At […], D8, D15, D22 and D28, blood is sampled under isoflurane anesthesia by retro-orbital puncture. To follow compounds efficacy, HBsAg is dosed in serum by Elisa assay (Immunodiagnostic, ref HBSAG EIA) and HBV DNA level is measured in serum using qPCR (SYBR green).
After 5 weeks of treatment, mice are euthanized 2 hours after the last dosing for liver and blood collection.
In blood HBsAg is measured by Elisa assay, HBV DNA by qPCR and compound level by LCMS-MS.
In liver HBV DNA is measured by qPCR, compound level by LCMS-MS, pgRNA by RT-qPCR, HBcAg by immunohistochemistry (Dako ref B0586).
When subjected to this protocol, the following results for illustrative compounds of the invention are obtained. Table VII. Infected mice HBsAg blood level variation

HBV [2] = assay: as above; assay type: in vivo, FRG KO mice; design: unit not given here; details: D1, mean, n=6

COCCCOc1cc2c(cc1F)-c1c(cc(C(=O)O)c(=O)n1C1CC1)[C@H](C(C)C)O2 [Compound 44, (5S)-1-cyclopropyl-9-fluoro-5-isopropyl-8-(3-methoxypropoxy)-2-oxo-5H-chromeno[4,3-b]pyridine-3-carboxylic acid]
Infected mice HBsAg blood level (HBV [1]; 1 mg/kg p.o q.d, D1, mean): 4.5 | Infected mice HBsAg blood level (HBV [1]; 1 mg/kg p.o q.d, D8, mean): 3.6 | Infected mice HBsAg blood level (HBV [1]; 1 mg/kg p.o q.d, D15, mean): 3.5 | Infected mice HBsAg blood level (HBV [1]; 1 mg/kg p.o q.d, D22, mean): 3.5 | Infected mice HBsAg blood level (HBV [1]; 1 mg/kg p.o q.d, D28, mean): 3.6 | Infected mice HBsAg blood level (HBV [1]; 10 mg/kg p.o q.d, D1, mean): 4.4 | Infected mice HBsAg blood level (HBV [1]; 10 mg/kg p.o q.d, D8, mean): 3.4 | Infected mice HBsAg blood level (HBV [1]; 10 mg/kg p.o q.d, D15, mean): 3.5 | Infected mice HBsAg blood level (HBV [1]; 10 mg/kg p.o q.d, D22, mean): 3.4 | Infected mice HBsAg blood level (HBV [1]; 10 mg/kg p.o q.d, D28, mean): 3.4

COCCCOc1cc2c(cc1Cl)-c1c(cc(C(=O)O)c(=O)n1C1CC1)[C@H](C1(C)COC1)O2 [Compound 46, (5R)-9-chloro-1-cyclopropyl-8-(3-methoxypropoxy)-5-(3-methyloxetan-3-yl)-2-oxo-5H-chromeno[4,3-b]pyridine-3-carboxylic acid]
Infected mice HBsAg blood level (HBV [1]; 0.3 mg/kg p.o q.d, D8, mean): 3.7 | Infected mice HBsAg blood level (HBV [1]; 0.3 mg/kg p.o q.d, D15, mean): 3.8 | Infected mice HBsAg blood level (HBV [1]; 0.3 mg/kg p.o q.d, D22, mean): 3.9 | Infected mice HBsAg blood level (HBV [1]; 0.3 mg/kg p.o q.d, D28, mean): 3.7 | Infected mice HBsAg blood level (HBV [1]; 3 mg/kg p.o q.d, D8, mean): 3.4 | Infected mice HBsAg blood level (HBV [1]; 3 mg/kg p.o q.d, D15, mean): 3.4 | Infected mice HBsAg blood level (HBV [1]; 3 mg/kg p.o q.d, D22, mean): 3.4 | Infected mice HBsAg blood level (HBV [1]; 3 mg/kg p.o q.d, D28, mean): 3.4 | Infected mice HBsAg blood level (HBV [1]; 30 mg/kg p.o q.d, D1, mean): 4.4 | Infected mice HBsAg blood level (HBV [1]; 30 mg/kg p.o q.d, D8, mean): 3.5 | Infected mice HBsAg blood level (HBV [1]; 30 mg/kg p.o q.d, D15, mean): 3.5 | Infected mice HBsAg blood level (HBV [1]; 30 mg/kg p.o q.d, D22, mean): 3.4 | Infected mice HBsAg blood level (HBV [1]; 30 mg/kg p.o q.d, D28, mean): 3.5 | Infected mice HBsAg blood level (HBV [2]; 0.3 mg/kg p.o q.d): 4.4 | Infected mice HBsAg blood level (HBV [2]; 3 mg/kg p.o q.d): 4.4

Reference: EP3720857B1, “2-OXO-5H-CHROMENO[4,3-B]PYRIDINES FOR USE IN THE TREATMENT OF HEPATITIS B” (Galapagos NV, priority 2017, dated 2019)
